The results in this text go back to US20020007663A1, “Method of introducing an in situant into a vapor compression system, especially useful for leak detection, as well as an apparatus for leak detection and a composition useful for leak detection” (Mainstream Engineering Corporation, priority 1997, published 2002).

Like-named read-outs stand apart in the source and are kept apart here.

The nature of the series: solubility of fluorescent in situants in POE oils, alcohols, AB oil and mineral oil. Conditions: for solubility in POE oil: two different POE oils. As for the experimental part: We have measured the solubility of several fluorescent and daylight-visible in situants in various POE oils and prepared solutions comprised solely of the POE carrier fluid (i.e., no alcohol in the carrier fluid) and these in situants. An example composition is 30 wt. % N-phenyl-1-naphthylamine and 70 wt. % POE oil. […] For example, a composition was prepared with 30 wt. % N-phenyl-1-naphthylamine, 1 wt. % 7-diethylamino-4-methylcoumarin (coumarin 1) and 69 wt. % POE oil. […] The preferred final composition of the fluorescing or daylight visible in situant in the system oil will be below the solubility limits.

Where [1] appears, read: POE oil or alcohols, qualitative.

Turning to `NC(=O)c1nc2ccc(O)cc2s1` [2-carbamoyl-6-hydroxybenzothiazole], the “soluble in POE oil or alcohols” value is “soluble”.

Regarding `Oc1ccc2nc(-c3nc4ccccc4s3)sc2c1` [2′-(2-benzothiazolyl)-6′-hydroxybenzothiazole], the “soluble in POE oil or alcohols” value is on record as “soluble”.

`c1ccc(N=Nc2ccc(Nc3ccccc3)cc2)cc1` [4-(phenylazo)-diphenylamine]: the “soluble in POE oil or alcohols” value is “soluble”.

In the case of `c1ccc(Nc2cccc3ccccc23)cc1` [N-phenyl-1-naphthylamine], the solubility in alcohols is given as 20-30% and the “solubility in POE oil” value is 20-30 % by wt. Further, the “solubility in AB oil” value (AB oil) is reported as “about 10 weight percent”. Further, the “solubility in mineral oil” value (mineral oil) was roughly 3 weight percent.

In the case of `c1ccc(Nc2ccc3ccccc3c2)cc1` [N-phenyl-2-naphthylamine], the solubility in alcohols is listed as 1-6% and the “solubility in POE oil” value was “about 5 % by wt”. Also, under setting [1], the “soluble in POE oil or alcohols” value is given as “soluble”.

Consider `O=C1c2cccc(O)c2C(=O)c2cccc(O)c21` [anthrarufin], for which the “soluble in POE oil or alcohols” value is given as “soluble”.

Consider `c1ccc(Nc2ccccc2)cc1` [diphenylamine], for which the “soluble in POE oil or alcohols” value is reported as “soluble”.

With `c1ccc2c(c1)Nc1ccccc1S2` [phenothiazine], the “soluble in POE oil or alcohols” value under setting [1] is on record as “soluble”.

Consider `O=C1c2ccccc2C(=O)c2c(O)c(O)cc(O)c21` [purpurin], for which the “soluble in POE oil or alcohols” value is “soluble”.

`O=C1c2ccc(O)c(O)c2C(=O)c2c(O)ccc(O)c21` [quinalizarin]: the “soluble in POE oil or alcohols” value is reported as “soluble”.

For `Cc1ccc2nc(-c3ccc(N=NNc4ccc(-c5nc6ccc(C)c(S(=O)(=O)[O-])c6s5)cc4)cc3)sc2c1S(=O)(=O)[O-].[Na+].[Na+]` [thiazole yellow G], the “soluble in POE oil or alcohols” value is on record as “soluble”.

With primuline, the “soluble in POE oil or alcohols” value is on record as “soluble”.
